Columns and labels:
[1] = system: C32 (Melanoma); assay: Bliss excess, mean over the matrix (fraction); higher = more synergy
Method in brief: (§1)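 Cell lines in DMEM/F12 or RPMI with 10% FBS were plated in 1536-well plates, held 24 hours at 37°C, 5% CO2, then given two-drug dose matrices for 72 hours (DMSO typically 0.2%). Viability was read by CellTiter-Glo 2.0 luminescence and scaled as inhibition from 0 (vehicle wells) to 1 (blank wells). Combination Emax is the second-highest inhibition in the matrix; Bliss excess is observed combination effect minus expected EA + EB − EA·EB, EA and EB being single-agent effects.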

[2] = system: Daudi (Burkitt's Lymphoma); assay: as above
Method in brief: as §1

[3] = system: NCI-H1435 (Non-Small Cell Lung Carcinoma); assay: as above
Method in brief: as §1

[4] = system: NCI-H1648 (Lung Adenocarcinoma); assay: as above
Method in brief: as §1

[5] = system: NCI-H1944 (Lung Adenocarcinoma); assay: as above
Method in brief: as §1

[6] = system: NCI-H2023 (Non-Small Cell Lung Carcinoma); assay: as above
Method in brief: as §1

[7] = system: OVKATE (Ovarian Carcinoma); assay: as above
Method in brief: as §1

[8] = system: RPMI-8402 (T-Lymphoblastic Leukemia); assay: as above
Method in brief: as §1

[9] = system: RS4-11 (B-Lymphoblastic Leukemia); assay: as above
Method in brief: as §1

[10] = system: SBC-3 (Small Cell Lung Carcinoma); assay: as above
Method in brief: as §1

[11] = system: SK-MEL-24 (Melanoma); assay: as above
Method in brief: as §1

[12] = system: SK-N-DZ (Neuroblastoma); assay: as above
Method in brief: as §1

[13] = system: C2BBe1 (Colorectal Carcinoma); assay: combination Emax (second highest fraction inhibited in the dose matrix, 72 h); higher = more inhibition; extreme values may be limits of the assay
Method in brief: as §1

[14] = system: HT-144 (Melanoma); assay: as above
Method in brief: as §1

[15] = system: JJN-3 (Plasma Cell Myeloma); assay: as above
Method in brief: as §1

[16] = system: JURL-MK1 (Chronic Myelogenous Leukemia); assay: as above
Method in brief: as §1

[17] = system: NTERA-2-cl-D1 (Other Solid Carcinomas); assay: as above
Method in brief: as §1

[18] = system: OVKATE (Ovarian Carcinoma); assay: as above
Method in brief: as §1

[19] = system: SK-MEL-24 (Melanoma); assay: as above
Method in brief: as §1

[20] = system: SW1463 (Colorectal Carcinoma); assay: as above
Method in brief: as §1
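Throughout, for Bliss excess, mean over the matrix: after 72 h of two-drug dosing.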

| SMILES | Bliss excess [1] | Bliss excess [2] | Bliss excess [3] | Bliss excess [4] | Bliss excess [5] | Bliss excess [6] | Bliss excess [7] | Bliss excess [8] | Bliss excess [9] | Bliss excess [10] | Bliss excess [11] | Bliss excess [12] | combination Emax [13] | combination Emax [14] | combination Emax [15] | combination Emax [16] | combination Emax [17] | combination Emax [18] | combination Emax [19] | combination Emax [20] |
| --- | --- | --- | --- | --- | --- | --- | --- | --- | --- | --- | --- | --- | --- | --- | --- | --- | --- | --- | --- | --- |
| COc1cccc(OCCCN)c1-c1cc(Nc2cnc(C#N)cn2)n[nH]1 [Prexasertib] + Cc1cc2ncnn2cc1Nc1ncc2c(n1)n(C1CCOCC1)c(=O)n2C [AZD7648] (first compound max 1 µM, 7x7, partner max 10 µM) | -0.004 | 0.0017 | 0.0115 | -0.0609 | -0.0028 | -0.027 | -0.0853 | -0.0127 | -0.0159 | -0.0512 | 0.0054 | -0.0049 | 0.625 | 0.72 | 0.966 | 1 | 0.345 | 0.294 | 0.61 | 0.704 |
| COc1cccc(OCCCN)c1-c1cc(Nc2cnc(C#N)cn2)n[nH]1 [Prexasertib] + O=C(c1cc(Cc2n[nH]c(=O)c3ccccc23)ccc1F)N1CCN(C(=O)C2CC2)CC1 [Olaparib] (first compound max 1 µM, 7x7, partner max 10 µM) | -0.0459 | -0.058 | 0.0045 | 0.0051 | -0.0498 | -0.0213 | -0.062 | -0.0292 | -0.0025 | -0.0544 | -0.0381 | -0.0511 | 0.414 | 0.712 | 0.978 | 1 | 0.742 | 0.371 | 0.607 | 0.601 |
| CCc1c2c(nc3ccc(O)cc13)-c1cc3c(c(=O)n1C2)COC(=O)[C@]3(O)CC [SN-38] + CN(C)CCCOc1ccc(-c2ccc3ncc4c(c3c2)n(C2CCOCC2)c(=O)n4C)cn1 [AZD0156] (first compound max 0.3 µM, 7x7, partner max 1 µM) | 0.0537 | 0.0078 | -0.026 | -0.0451 | -0.0343 | -0.0017 | -0.0763 | 0.073 | -0.0347 | -0.0894 | 0.0267 | 0.0604 | 0.149 | 0.753 | 0.626 | 1 | 0.958 | 0.224 | 0.825 | 0.634 |

From the supplement of paper PMC11061612
